Columns and labels:
MST2 = target: T1, MST2 (Homo sapiens, UniProt Q13188); assay: KINOMEscan 1 μM, MST2; format: binding; conditions: 1000 nM; Entrez STK3; read-out: Percent Control
T1 construct: purchased Eurofins DiscoverX KINOMEscan
Excerpt: (§1) Supplement cells-12-00287-s001.zip/File S2. KinomeScan data for the CAMKK2 probe and negative control.xlsx, sheet "SGC-CAMKK2-1" | column: Percent Control

MAP4K3 = target: T2, MAP4K3 (Homo sapiens, UniProt Q8IVH8); assay: KINOMEscan 1 μM, MAP4K3; format: binding; conditions: 1000 nM; Entrez MAP4K3; read-out: Percent Control
T2 construct: purchased Eurofins DiscoverX KINOMEscan
Excerpt: as §1

CHEK2 = target: T3, CHEK2 (Homo sapiens, UniProt O96017); assay: KINOMEscan 1 μM, CHEK2; format: binding; conditions: 1000 nM; Entrez CHEK2; read-out: Percent Control
T3 construct: purchased Eurofins DiscoverX KINOMEscan
Excerpt: as §1

EGFR(L861Q) = target: T4, EGFR(L861Q) (Homo sapiens, UniProt P00533, L861Q); assay: KINOMEscan 1 μM, EGFR(L861Q); format: binding; conditions: 1000 nM; Entrez EGFR; read-out: Percent Control
T4 construct: purchased Eurofins DiscoverX KINOMEscan
Excerpt: as §1

PDGFRB = target: T5, PDGFRB (Homo sapiens, UniProt P09619); assay: DiscoverX KINOMEscan binding assay at 1 μM, PDGFRB; conditions: Compound Concentration 1000 nM, read-out: Percent Control
T5 construct: purchased Eurofins DiscoverX KINOMEscan
Excerpt: as §1

MAP3K4 = target: T6, MAP3K4 (Homo sapiens, UniProt Q9Y6R4); assay: KINOMEscan 1 μM, MAP3K4; format: binding; conditions: 1000 nM; Entrez MAP3K4; read-out: Percent Control
T6 construct: purchased Eurofins DiscoverX KINOMEscan
Excerpt: as §1

EPHA8 = target: T7, EPHA8 (Homo sapiens, UniProt P29322); assay: KINOMEscan 1 μM, EPHA8; format: binding; conditions: 1000 nM; Entrez EPHA8; read-out: Percent Control
T7 construct: purchased Eurofins DiscoverX KINOMEscan
T7 sequence (P29322 28-1005): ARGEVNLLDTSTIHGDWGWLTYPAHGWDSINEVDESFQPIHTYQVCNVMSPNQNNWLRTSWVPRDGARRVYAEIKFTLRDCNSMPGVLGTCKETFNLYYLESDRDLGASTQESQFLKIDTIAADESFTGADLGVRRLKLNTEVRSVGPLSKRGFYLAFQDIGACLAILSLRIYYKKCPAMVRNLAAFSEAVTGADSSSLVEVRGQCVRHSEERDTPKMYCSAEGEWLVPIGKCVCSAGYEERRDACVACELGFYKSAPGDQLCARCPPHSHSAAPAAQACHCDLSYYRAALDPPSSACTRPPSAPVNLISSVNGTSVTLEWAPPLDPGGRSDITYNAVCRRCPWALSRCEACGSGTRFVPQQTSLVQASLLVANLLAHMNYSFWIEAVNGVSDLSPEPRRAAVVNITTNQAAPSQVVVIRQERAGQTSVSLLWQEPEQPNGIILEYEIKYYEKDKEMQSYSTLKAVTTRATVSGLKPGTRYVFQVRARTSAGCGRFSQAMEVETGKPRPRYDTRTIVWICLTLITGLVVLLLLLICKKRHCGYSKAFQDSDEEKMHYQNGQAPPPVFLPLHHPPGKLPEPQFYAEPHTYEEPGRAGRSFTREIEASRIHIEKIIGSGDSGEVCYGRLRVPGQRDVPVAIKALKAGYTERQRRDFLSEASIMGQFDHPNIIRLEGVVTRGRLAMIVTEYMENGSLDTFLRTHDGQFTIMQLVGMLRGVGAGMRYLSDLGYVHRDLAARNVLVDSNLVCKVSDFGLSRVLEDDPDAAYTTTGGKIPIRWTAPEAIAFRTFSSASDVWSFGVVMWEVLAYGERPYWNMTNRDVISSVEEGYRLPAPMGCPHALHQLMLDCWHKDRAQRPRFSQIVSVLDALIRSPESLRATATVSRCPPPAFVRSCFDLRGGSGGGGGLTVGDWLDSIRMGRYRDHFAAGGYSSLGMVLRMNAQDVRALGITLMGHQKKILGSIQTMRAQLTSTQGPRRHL
Excerpt: as §1

[1] = target: T8, JAK1(JH1domain-catalytic) (Homo sapiens, UniProt P23458); assay: KINOMEscan 1 μM, JAK1(JH1domain-catalytic); format: binding; conditions: 1000 nM; Entrez JAK1; read-out: Percent Control
T8 construct: JAK1(JH1domain-catalytic); purchased Eurofins DiscoverX KINOMEscan
Excerpt: as §1

[2] = target: T9, ABL1(F317I)-phosphorylated (Homo sapiens, UniProt P00519, F317I); assay: KINOMEscan 1 μM, ABL1(F317I)-phosphorylated; format: binding; conditions: 1000 nM; Entrez ABL1; read-out: Percent Control
T9 construct: purchased Eurofins DiscoverX KINOMEscan
Excerpt: as §1

CSNK1A1L = target: T10, CSNK1A1L (Homo sapiens, UniProt Q8N752); assay: KINOMEscan 1 μM, CSNK1A1L; format: binding; conditions: 1000 nM; Entrez CSNK1A1L; read-out: Percent Control
T10 construct: purchased Eurofins DiscoverX KINOMEscan
Excerpt: as §1

ERK1 = target: T11, ERK1 (Homo sapiens, UniProt P27361); assay: KINOMEscan 1 μM, ERK1; format: binding; conditions: 1000 nM; Entrez MAPK3; read-out: Percent Control
T11 construct: purchased Eurofins DiscoverX KINOMEscan
Excerpt: as §1

EPHA3 = target: T12, EPHA3 (Homo sapiens, UniProt P29320); assay: KINOMEscan 1 μM, EPHA3; format: binding; conditions: 1000 nM; Entrez EPHA3; read-out: Percent Control
T12 construct: purchased Eurofins DiscoverX KINOMEscan
T12 sequence (P29320 21-983): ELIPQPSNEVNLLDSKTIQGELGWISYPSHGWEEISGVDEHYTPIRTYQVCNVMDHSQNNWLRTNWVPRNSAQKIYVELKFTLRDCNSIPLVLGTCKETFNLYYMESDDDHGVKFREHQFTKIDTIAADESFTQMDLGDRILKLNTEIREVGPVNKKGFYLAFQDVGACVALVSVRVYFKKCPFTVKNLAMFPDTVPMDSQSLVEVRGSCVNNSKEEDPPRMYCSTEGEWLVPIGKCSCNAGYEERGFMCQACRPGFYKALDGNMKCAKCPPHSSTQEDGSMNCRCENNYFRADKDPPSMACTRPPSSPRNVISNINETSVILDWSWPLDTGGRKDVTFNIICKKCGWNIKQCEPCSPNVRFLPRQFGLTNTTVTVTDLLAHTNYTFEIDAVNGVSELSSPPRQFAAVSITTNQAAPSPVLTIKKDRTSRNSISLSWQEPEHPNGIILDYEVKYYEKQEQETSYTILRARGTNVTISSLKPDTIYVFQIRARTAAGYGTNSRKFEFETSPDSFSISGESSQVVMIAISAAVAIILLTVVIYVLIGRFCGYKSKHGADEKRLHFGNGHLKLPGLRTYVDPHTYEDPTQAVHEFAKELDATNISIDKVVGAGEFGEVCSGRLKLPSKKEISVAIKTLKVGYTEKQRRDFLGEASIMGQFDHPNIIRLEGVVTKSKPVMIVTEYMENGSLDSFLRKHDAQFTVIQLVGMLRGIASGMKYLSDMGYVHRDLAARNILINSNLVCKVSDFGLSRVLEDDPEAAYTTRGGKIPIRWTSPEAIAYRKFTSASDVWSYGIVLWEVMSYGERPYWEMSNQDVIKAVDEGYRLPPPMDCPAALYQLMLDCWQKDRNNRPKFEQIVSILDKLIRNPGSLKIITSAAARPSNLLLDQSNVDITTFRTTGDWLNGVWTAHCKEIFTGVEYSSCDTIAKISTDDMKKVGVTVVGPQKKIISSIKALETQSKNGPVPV
Excerpt: as §1

MAP3K2 = target: T13, MAP3K2 (Homo sapiens, UniProt Q9Y2U5); assay: KINOMEscan 1 μM, MAP3K2; format: binding; conditions: 1000 nM; Entrez MAP3K2; read-out: Percent Control
T13 construct: purchased Eurofins DiscoverX KINOMEscan
Excerpt: as §1

CSNK1E = target: T14, CSNK1E (Homo sapiens, UniProt P49674); assay: KINOMEscan 1 μM, CSNK1E; format: binding; conditions: 1000 nM; Entrez CSNK1E; read-out: Percent Control
T14 construct: purchased Eurofins DiscoverX KINOMEscan
Excerpt: as §1

LKB1 [3] = target: T15, LKB1 (Homo sapiens, UniProt Q15831); assay: KINOMEscan 1 μM, LKB1; format: binding; conditions: 1000 nM; Entrez STK11; read-out: Percent Control
T15 construct: purchased Eurofins DiscoverX KINOMEscan
T15 sequence (Q15831 whole entry): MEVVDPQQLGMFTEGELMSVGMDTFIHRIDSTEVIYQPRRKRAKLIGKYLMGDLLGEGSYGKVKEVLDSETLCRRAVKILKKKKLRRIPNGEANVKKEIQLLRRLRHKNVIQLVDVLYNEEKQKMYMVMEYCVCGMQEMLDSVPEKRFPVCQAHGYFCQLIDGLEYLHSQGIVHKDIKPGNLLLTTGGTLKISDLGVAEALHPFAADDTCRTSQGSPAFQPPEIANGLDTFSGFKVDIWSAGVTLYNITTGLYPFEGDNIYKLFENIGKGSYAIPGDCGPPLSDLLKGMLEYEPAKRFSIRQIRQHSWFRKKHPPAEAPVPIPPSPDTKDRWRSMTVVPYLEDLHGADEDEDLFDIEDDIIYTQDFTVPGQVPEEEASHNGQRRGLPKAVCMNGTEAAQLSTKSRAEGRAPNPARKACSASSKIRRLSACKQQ
Excerpt: as §1

MYLK4 = target: T16, MYLK4 (Homo sapiens, UniProt Q86YV6); assay: KINOMEscan 1 μM, MYLK4; format: binding; conditions: 1000 nM; Entrez MYLK4; read-out: Percent Control
T16 construct: purchased Eurofins DiscoverX KINOMEscan
Excerpt: as §1

PLK2 = target: T17, PLK2 (Homo sapiens, UniProt Q9NYY3); assay: DiscoverX KINOMEscan binding assay at 1 μM, PLK2; conditions: Compound Concentration 1000 nM, read-out: Percent Control
T17 construct: purchased Eurofins DiscoverX KINOMEscan
T17 sequence (Q9NYY3 whole entry): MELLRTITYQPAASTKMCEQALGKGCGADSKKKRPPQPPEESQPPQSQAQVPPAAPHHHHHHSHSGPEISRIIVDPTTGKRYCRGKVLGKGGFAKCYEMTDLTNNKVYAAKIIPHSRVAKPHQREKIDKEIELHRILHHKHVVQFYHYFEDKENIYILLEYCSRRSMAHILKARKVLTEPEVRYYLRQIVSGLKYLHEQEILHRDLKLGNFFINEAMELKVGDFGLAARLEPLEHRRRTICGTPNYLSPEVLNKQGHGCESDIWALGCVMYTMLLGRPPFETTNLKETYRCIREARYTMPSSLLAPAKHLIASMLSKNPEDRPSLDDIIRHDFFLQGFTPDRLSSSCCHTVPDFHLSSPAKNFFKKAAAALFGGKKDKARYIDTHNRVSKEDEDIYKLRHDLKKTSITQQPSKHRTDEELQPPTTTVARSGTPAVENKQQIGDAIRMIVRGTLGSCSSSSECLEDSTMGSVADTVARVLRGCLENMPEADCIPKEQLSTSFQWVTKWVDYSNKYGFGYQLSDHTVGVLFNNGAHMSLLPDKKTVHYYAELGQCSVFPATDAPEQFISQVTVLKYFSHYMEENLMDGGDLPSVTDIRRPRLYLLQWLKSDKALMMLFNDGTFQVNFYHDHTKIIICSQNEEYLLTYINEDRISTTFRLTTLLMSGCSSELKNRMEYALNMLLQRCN
Excerpt: as §1

LRRK2 = target: T18, LRRK2 (Homo sapiens, UniProt Q5S007); assay: KINOMEscan 1 μM, LRRK2; format: binding; conditions: 1000 nM; Entrez LRRK2; read-out: Percent Control
T18 construct: purchased Eurofins DiscoverX KINOMEscan
Excerpt: as §1

DDR2 = target: T19, DDR2 (Homo sapiens, UniProt Q16832); assay: KINOMEscan 1 μM, DDR2; format: binding; conditions: 1000 nM; Entrez DDR2; read-out: Percent Control
T19 construct: purchased Eurofins DiscoverX KINOMEscan
T19 sequence (Q16832 22-855): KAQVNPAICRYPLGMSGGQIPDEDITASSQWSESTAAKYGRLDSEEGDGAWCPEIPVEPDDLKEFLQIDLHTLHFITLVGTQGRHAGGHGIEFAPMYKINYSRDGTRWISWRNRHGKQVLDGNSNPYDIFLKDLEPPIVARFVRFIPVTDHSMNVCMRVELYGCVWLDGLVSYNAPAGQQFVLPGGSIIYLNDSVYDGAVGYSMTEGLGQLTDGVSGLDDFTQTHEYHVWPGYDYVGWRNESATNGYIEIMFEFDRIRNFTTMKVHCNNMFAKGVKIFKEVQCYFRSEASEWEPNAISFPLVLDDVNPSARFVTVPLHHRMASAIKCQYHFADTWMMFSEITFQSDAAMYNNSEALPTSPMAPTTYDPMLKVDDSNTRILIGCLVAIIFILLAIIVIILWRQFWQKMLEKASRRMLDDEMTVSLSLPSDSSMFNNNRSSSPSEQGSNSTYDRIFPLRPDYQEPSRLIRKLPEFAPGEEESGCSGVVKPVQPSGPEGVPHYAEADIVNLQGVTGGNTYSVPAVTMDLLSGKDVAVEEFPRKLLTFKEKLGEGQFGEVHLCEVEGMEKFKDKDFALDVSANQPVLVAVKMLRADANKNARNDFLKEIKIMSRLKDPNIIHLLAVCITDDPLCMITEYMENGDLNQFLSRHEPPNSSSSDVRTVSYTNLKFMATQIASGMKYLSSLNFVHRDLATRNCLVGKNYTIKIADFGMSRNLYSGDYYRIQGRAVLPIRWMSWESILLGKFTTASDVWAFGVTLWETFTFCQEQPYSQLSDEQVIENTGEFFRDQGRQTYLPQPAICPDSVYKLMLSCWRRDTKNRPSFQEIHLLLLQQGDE
Excerpt: as §1

RIPK1 = target: T20, RIPK1 (Homo sapiens, UniProt Q13546); assay: KINOMEscan at 1 μM, RIPK1; format: binding; conditions: 1000 nM, read-out: Percent Control
T20 construct: purchased Eurofins DiscoverX KINOMEscan
Excerpt: (§2) Supplement cells-12-00287-s001.zip/File S2. KinomeScan data for the CAMKK2 probe and negative control.xlsx, sheet "SGC-CAMKK2-1N" | column: Percent Control

DYRK1B = target: T21, DYRK1B (Homo sapiens, UniProt Q9Y463); assay: KINOMEscan at 1 μM, DYRK1B; format: binding; conditions: 1000 nM, read-out: Percent Control
T21 construct: purchased Eurofins DiscoverX KINOMEscan
Excerpt: as §2

AKT3 = target: T22, AKT3 (Homo sapiens, UniProt Q9Y243); assay: KINOMEscan at 1 μM, AKT3; format: binding; conditions: 1000 nM, read-out: Percent Control
T22 construct: purchased Eurofins DiscoverX KINOMEscan
Excerpt: as §2

LATS1 = target: T23, LATS1 (Homo sapiens, UniProt O95835); assay: KINOMEscan at 1 μM, LATS1; format: binding; conditions: 1000 nM, read-out: Percent Control
T23 construct: purchased Eurofins DiscoverX KINOMEscan
Excerpt: as §2

MRCKA = target: T24, MRCKA (Homo sapiens, UniProt Q5VT25); assay: KINOMEscan at 1 μM, MRCKA; format: binding; conditions: 1000 nM, read-out: Percent Control
T24 construct: purchased Eurofins DiscoverX KINOMEscan
Excerpt: as §2

LKB1 [4] = target: T15, LKB1; assay: KINOMEscan binding assay at 1 μM, LKB1; conditions: Compound Concentration 1000 nM; read-out: Percent Control
Excerpt: as §2

BMPR2 = target: T25, BMPR2 (Homo sapiens, UniProt Q13873); assay: KINOMEscan at 1 μM, BMPR2; format: binding; conditions: 1000 nM, read-out: Percent Control
T25 construct: purchased Eurofins DiscoverX KINOMEscan
Excerpt: as §2

[5] = target: T26, ABL1(Y253F)-phosphorylated (Homo sapiens, UniProt P00519, Y253F); assay: KINOMEscan at 1 μM, ABL1(Y253F)-phosphorylated; format: binding; conditions: 1000 nM, read-out: Percent Control
T26 construct: purchased Eurofins DiscoverX KINOMEscan
Excerpt: as §2

GSK3A = target: T27, GSK3A (Homo sapiens, UniProt P49840); assay: KINOMEscan binding assay at 1 μM, GSK3A; conditions: Compound Concentration 1000 nM; read-out: Percent Control
T27 construct: purchased Eurofins DiscoverX KINOMEscan
T27 sequence (P49840 whole entry): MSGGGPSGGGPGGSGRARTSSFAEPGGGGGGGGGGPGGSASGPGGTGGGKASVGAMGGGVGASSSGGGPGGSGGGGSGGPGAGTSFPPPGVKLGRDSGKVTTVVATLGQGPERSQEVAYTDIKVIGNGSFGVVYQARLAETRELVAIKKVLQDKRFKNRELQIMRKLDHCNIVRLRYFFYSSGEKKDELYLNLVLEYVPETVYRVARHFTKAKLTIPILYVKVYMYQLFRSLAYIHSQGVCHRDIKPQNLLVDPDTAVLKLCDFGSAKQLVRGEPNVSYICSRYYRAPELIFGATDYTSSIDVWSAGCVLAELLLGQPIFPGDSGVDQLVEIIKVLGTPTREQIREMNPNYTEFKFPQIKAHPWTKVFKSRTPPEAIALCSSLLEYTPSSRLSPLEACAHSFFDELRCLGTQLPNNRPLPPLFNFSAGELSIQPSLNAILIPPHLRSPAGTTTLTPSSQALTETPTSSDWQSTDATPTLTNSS
Excerpt: as §2

NEK2 = target: T28, NEK2 (Homo sapiens, UniProt P51955); assay: KINOMEscan at 1 μM, NEK2; format: binding; conditions: 1000 nM, read-out: Percent Control
T28 construct: purchased Eurofins DiscoverX KINOMEscan
Excerpt: as §2

MELK = target: T29, MELK (Homo sapiens, UniProt Q14680); assay: KINOMEscan at 1 μM, MELK; format: binding; conditions: 1000 nM, read-out: Percent Control
T29 construct: purchased Eurofins DiscoverX KINOMEscan
Excerpt: as §2

NDR1 = target: T30, NDR1 (Homo sapiens, UniProt Q15208); assay: KINOMEscan at 1 μM, NDR1; format: binding; conditions: 1000 nM, read-out: Percent Control
T30 construct: purchased Eurofins DiscoverX KINOMEscan
Excerpt: as §2

YANK3 = target: T31, YANK3 (Homo sapiens, UniProt Q86UX6); assay: KINOMEscan at 1 μM, YANK3; format: binding; conditions: 1000 nM, read-out: Percent Control
T31 construct: purchased Eurofins DiscoverX KINOMEscan
T31 sequence (Q86UX6 whole entry): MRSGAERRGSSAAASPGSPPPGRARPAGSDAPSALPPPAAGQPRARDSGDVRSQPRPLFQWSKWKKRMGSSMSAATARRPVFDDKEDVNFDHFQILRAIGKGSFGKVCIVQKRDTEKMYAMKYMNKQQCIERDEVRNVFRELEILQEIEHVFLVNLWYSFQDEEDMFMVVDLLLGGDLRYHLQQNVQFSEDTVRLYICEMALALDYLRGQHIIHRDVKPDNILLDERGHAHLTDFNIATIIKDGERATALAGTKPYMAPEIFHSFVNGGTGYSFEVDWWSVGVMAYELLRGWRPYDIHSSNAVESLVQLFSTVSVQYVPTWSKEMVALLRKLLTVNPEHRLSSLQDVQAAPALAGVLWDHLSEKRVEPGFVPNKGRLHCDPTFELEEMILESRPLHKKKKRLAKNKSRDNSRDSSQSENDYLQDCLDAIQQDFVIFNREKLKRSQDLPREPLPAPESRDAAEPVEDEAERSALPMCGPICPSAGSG
Excerpt: as §2

SYK = target: T32, SYK (Homo sapiens, UniProt P43405); assay: KINOMEscan binding assay at 1 μM, SYK; conditions: Compound Concentration 1000 nM; read-out: Percent Control
T32 construct: purchased Eurofins DiscoverX KINOMEscan
Excerpt: as §2

Q: How did the remaining binding at 1 µM (MST2) turn out when Cc1cccc(-c2cnc3occ(-c4ccc(C(=O)O)c(C5CCCC5)c4)c3c2)c1 [SGC-CAMKK2-1 (YL-36)] was run?
A: 95%

Q: And the remaining binding at 1 µM (MAP4K3)?
A: 78%

Q: What about the remaining binding at 1 µM (CHEK2) of the same compound?
A: 92%

Q: And the remaining binding at 1 µM (EGFR(L861Q))?
A: 47%

Q: And the remaining binding at 1 µM (PDGFRB)?
A: 100%

Q: What about the remaining binding at 1 µM (MAP3K4) of the same compound?
A: 100%

Q: What about the remaining binding at 1 µM (EPHA8) of the same compound?
A: 95%

Q: What about the remaining binding at 1 µM [1] of the same compound?
A: 85%

Q: What about the remaining binding at 1 µM [2] of the same compound?
A: 100%

Q: And the remaining binding at 1 µM (CSNK1A1L)?
A: 88%

Q: What about the remaining binding at 1 µM (ERK1) of the same compound?
A: 100%

Q: And the remaining binding at 1 µM (EPHA3)?
A: 100%

Q: What about the remaining binding at 1 µM (MAP3K2) of the same compound?
A: 100%

Q: What about the remaining binding at 1 µM (CSNK1E) of the same compound?
A: 75%

Q: And the remaining binding at 1 µM (LKB1 [3])?
A: 78%

Q: What about the remaining binding at 1 µM (MYLK4) of the same compound?
A: 100%

Q: What about the remaining binding at 1 µM (PLK2) of the same compound?
A: 100%

Q: What about the remaining binding at 1 µM (LRRK2) of the same compound?
A: 70%

Q: And the remaining binding at 1 µM (DDR2)?
A: 100%

Q: Which remaining binding at 1 µM (RIPK1) does the source give for O=C(O)c1ccc(-c2coc3ncc(-c4ccccc4)cc23)cc1Cl [SGC-CAMKK2-1N (UNC-YL-83)] here?
A: 90%

Q: And the remaining binding at 1 µM (DYRK1B)?
A: 94%

Q: What about the remaining binding at 1 µM (AKT3) of the same compound?
A: 95%

Q: And the remaining binding at 1 µM (LATS1)?
A: 83%

Q: And the remaining binding at 1 µM (MRCKA)?
A: 96%

Q: What about the remaining binding at 1 µM (LKB1 [4]) of the same compound?
A: 100%

Q: What about the remaining binding at 1 µM (BMPR2) of the same compound?
A: 71%

Q: And the remaining binding at 1 µM [5]?
A: 69%

Q: What about the remaining binding at 1 µM (GSK3A) of the same compound?
A: 100%

Q: And the remaining binding at 1 µM (NEK2)?
A: 97%

Q: And the remaining binding at 1 µM (MELK)?
A: 88%

Q: And the remaining binding at 1 µM (NDR1)?
A: 87%

Q: What about the remaining binding at 1 µM (YANK3) of the same compound?
A: 70%

Q: What about the remaining binding at 1 µM (SYK) of the same compound?
A: 100%

Reference: article PMC9856672, “SGC-CAMKK2-1: A Chemical Probe for CAMKK2” (Cells, 2023)
